Experimental data reported in ChEMBL document CHEMBL1156858, “Comparative analysis of DNA alkylation by conjugates between pyrrole-imidazole hairpin polyamides and chlorambucil or seco-CBI” (2010).
Activity calls are given as the source filed them. The rule behind the calls is not given here.

What was measured:
Nucleic Acid [1] = test: Induction of DNA alkylation at 3'-side adenines in 5'-AGCAGTCAAAAA-3' site of 5'-Texas Red-modified 209bp DNA fragment at 10 nm to 1 uM after 18 hrs at 23 degC by high-resolution denaturing PAGE; format: nucleic-acid assay
Nucleic Acid [2] = test: Induction of DNA alkylation at 5'-TCTTTTTAA-3' site of 5'-Texas Red-modified 209bp DNA fragment at 10 nm to 1 uM after 18 hrs at 23 degC by high-resolution denaturing PAGE; format: nucleic-acid assay
K562 = test: Growth inhibition of human K562 cells after 48 hrs by WST8 dye reduction assay; format: functional; details: K562, 48 h
Nucleic Acid [3] = test: Induction of DNA alkylation at 5'-AAAAAAGACTGCT-3' site of 5'-Texas Red-modified 209bp DNA fragment at 10 nm to 1 uM after 18 hrs at 23 degC by high-resolution denaturing PAGE; format: nucleic-acid assay
Nucleic Acid [4] = test: Induction of DNA alkylation at 5' side in 5'-AGCAGTC-3' site of 5'-Texas Red-modified 209bp DNA fragment at 10 nm to 1 uM after 18 hrs at 23 degC by high-resolution denaturing PAGE; format: nucleic-acid assay

Compound	Activity (Nucleic Acid [1])	Activity (Nucleic Acid [2])	GI50 (K562) [µM]	Activity (Nucleic Acid [3])	Activity (Nucleic Acid [4])
CC(=O)Nc1cn(C)c(C(=O)Nc2cc(C(=O)Nc3cc(C(=O)NCCC(=O)Nc4cn(C)c(C(=O)Nc5cc(C(=O)NCCCC(=O)Nc6cn(C)c(C(=O)Nc7cc(C(=O)NCCC(=O)Nc8cn(C)c(C(=O)Nc9ccc%10[nH]c(C(=O)N%11CC(CCl)c%12c%11cc(O)c%11ccccc%12%11)cc%10c9)n8)n(C)c7)n6)n(C)c5)n4)n(C)c3)n(C)c2)n1 (configuration not stated)	Active	Active	0.06		
CC(=O)Nc1cn(C)c(C(=O)Nc2cc(C(=O)Nc3cc(C(=O)NCCC(=O)Nc4cn(C)c(C(=O)Nc5cc(C(=O)NCCCC(=O)Nc6cnc(C(=O)Nc7cc(C(=O)NCCC(=O)Nc8cn(C)c(C(=O)Nc9cc(C(=O)Nc%10cc(C(=O)NCCCN(C)CCCNC(=O)CCCc%11ccc(N(CCCl)CCCl)cc%11)n(C)c%10)n(C)c9)n8)n(C)c7)n6C)n(C)c5)n4)n(C)c3)n(C)c2)n1	Active		> 2.5	Active	
CN(C)CCCNC(=O)c1cc(NC(=O)c2cc(NC(=O)c3nc(NC(=O)CCNC(=O)c4cc(NC(=O)c5ncc(NC(=O)CCCNC(=O)c6cc(NC(=O)c7nc(NC(=O)CCNC(=O)c8cc(NC(=O)c9cc(NC(=O)c%10nc(NC(=O)CCNC(=O)CCCc%11ccc(N(CCCl)CCCl)cc%11)cn%10C)cn9C)cn8C)cn7C)cn6C)n5C)cn4C)cn3C)cn2C)cn1C	Active		8	inactive	
CC(=O)Nc1cn(C)c(C(=O)Nc2cc(C(=O)Nc3cc(C(=O)NCCC(=O)Nc4cn(C)c(C(=O)Nc5cc(C(=O)N[C@H](CCNC(=O)CCCc6ccc(N(CCCl)CCCl)cc6)C(=O)Nc6cnc(C(=O)Nc7cc(C(=O)NCCC(=O)Nc8cn(C)c(C(=O)Nc9cc(C(=O)Nc%10cc(C(=O)NCCCN(C)C)n(C)c%10)n(C)c9)n8)n(C)c7)n6C)n(C)c5)n4)n(C)c3)n(C)c2)n1	Active		> 10	inactive	Active
CN(C)CCCNC(=O)c1cc(NC(=O)c2cc(NC(=O)c3nc(NC(=O)CCNC(=O)c4cc(NC(=O)c5ncc(NC(=O)CCCNC(=O)c6cc(NC(=O)c7nc(NC(=O)CCNC(=O)c8cc(NC(=O)c9cc(NC(=O)c%10nc(NC(=O)CCCc%11ccc(N(CCCl)CCCl)cc%11)cn%10C)cn9C)cn8C)cn7C)cn6C)n5C)cn4C)cn3C)cn2C)cn1C	Active	Active	> 2.5	inactive	
